From US20240150325A1, “NOVEL COMPOUND AS PROTEIN KINASE INHIBITORS” (LG CHEM, LTD., priority 2021, published 2024)

Experiments:
[1] = biological target: RON (Homo sapiens, UniProt Q04912); assay: Evaluation of inhibitory activity to RON; format: biochemical
Description: (§1) Experimental Example 1. Evaluation of Inhibitory Activity to RON and MET

[2] = biological target: MET (Homo sapiens, UniProt P08581); assay: Evaluation of inhibitory activity to MET; format: biochemical
Description: as §1

Sequence of MET (P08581 25-1390): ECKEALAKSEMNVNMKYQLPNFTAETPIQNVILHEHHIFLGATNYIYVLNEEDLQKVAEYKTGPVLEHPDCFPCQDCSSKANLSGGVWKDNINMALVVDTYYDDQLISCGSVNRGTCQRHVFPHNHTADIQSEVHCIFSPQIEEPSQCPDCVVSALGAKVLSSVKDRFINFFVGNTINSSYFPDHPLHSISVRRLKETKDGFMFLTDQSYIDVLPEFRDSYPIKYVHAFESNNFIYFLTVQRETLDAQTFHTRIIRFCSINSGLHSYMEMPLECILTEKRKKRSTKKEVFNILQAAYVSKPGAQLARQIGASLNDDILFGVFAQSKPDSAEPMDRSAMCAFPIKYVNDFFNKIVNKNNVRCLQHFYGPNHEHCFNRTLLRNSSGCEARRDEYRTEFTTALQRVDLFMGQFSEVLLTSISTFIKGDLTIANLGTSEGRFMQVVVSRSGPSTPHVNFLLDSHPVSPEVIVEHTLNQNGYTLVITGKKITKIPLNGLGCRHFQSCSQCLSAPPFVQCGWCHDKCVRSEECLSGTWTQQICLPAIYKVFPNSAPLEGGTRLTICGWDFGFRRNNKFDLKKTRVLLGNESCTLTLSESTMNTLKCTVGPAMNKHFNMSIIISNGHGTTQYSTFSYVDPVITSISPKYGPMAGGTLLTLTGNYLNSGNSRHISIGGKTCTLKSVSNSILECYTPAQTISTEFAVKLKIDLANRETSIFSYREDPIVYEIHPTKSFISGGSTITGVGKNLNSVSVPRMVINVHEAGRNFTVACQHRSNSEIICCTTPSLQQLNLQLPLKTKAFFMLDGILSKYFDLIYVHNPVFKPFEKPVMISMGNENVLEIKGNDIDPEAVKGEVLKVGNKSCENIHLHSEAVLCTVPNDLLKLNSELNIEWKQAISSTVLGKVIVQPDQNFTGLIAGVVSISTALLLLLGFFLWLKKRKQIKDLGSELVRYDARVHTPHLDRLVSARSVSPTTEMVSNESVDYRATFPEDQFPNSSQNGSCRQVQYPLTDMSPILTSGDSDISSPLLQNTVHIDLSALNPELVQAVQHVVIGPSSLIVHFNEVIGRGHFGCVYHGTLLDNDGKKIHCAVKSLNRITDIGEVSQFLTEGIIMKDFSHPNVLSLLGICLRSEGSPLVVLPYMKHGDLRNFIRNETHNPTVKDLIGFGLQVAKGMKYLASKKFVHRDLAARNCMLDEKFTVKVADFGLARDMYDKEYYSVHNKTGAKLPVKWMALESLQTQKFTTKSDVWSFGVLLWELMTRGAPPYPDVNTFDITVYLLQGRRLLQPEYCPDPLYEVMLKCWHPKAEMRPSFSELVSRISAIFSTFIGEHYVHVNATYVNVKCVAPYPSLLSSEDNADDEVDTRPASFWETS
Sequence of RON (Q04912 25-1400): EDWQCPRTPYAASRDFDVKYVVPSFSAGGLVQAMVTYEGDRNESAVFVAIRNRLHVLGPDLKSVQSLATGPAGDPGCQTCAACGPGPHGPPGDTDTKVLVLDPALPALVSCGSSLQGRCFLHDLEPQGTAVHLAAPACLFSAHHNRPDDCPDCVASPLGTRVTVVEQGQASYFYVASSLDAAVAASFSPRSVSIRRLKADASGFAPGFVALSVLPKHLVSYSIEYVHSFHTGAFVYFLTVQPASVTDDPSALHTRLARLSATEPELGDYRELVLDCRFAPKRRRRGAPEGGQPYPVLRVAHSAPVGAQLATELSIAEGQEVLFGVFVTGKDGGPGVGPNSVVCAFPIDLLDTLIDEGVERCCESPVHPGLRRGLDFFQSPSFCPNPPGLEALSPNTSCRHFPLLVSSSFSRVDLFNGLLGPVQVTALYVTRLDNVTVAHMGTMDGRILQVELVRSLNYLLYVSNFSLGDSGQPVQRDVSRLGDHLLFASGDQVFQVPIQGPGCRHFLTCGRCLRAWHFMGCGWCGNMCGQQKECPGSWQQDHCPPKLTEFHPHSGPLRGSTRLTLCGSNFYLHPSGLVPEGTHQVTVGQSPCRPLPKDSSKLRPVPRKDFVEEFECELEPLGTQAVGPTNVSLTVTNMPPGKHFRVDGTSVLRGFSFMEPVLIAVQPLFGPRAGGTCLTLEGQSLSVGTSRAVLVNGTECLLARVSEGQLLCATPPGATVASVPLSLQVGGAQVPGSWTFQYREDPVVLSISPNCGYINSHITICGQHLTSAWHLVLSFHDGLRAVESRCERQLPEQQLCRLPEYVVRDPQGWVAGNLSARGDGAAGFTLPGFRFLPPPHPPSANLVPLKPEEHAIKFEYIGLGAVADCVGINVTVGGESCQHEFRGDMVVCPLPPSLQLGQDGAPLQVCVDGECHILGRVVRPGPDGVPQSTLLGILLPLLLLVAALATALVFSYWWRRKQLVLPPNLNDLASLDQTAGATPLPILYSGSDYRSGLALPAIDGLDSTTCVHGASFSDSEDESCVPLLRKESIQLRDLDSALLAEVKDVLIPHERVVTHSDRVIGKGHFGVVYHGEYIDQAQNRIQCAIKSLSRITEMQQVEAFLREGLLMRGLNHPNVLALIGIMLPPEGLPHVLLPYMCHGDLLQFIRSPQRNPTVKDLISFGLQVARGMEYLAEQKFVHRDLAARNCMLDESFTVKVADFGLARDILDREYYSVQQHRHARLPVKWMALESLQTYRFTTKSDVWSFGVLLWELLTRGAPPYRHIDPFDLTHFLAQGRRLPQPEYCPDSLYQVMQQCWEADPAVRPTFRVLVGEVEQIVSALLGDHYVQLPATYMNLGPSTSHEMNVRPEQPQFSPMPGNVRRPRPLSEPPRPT

SMILES: COc1ccn(-c2ccc(F)cc2)c(=O)c1C(=O)Nc1ccc(Oc2ccc(O)c(-c3ccnc(N)n3)c2)c(F)c1 [Example 42, N-(4-(3-(2-aminopyrimidin-4-yl)-4-hydroxyphenoxy)-3-fluorophenyl)-1-(4-fluorophenyl)-4-methoxy-2-oxo-1,2-dihydropyridin-3-carboxamide]
- IC50 [1]: 355 nM
- IC50 [2]: 53 nM

SMILES: CCOc1ccn(-c2ccc(F)cc2)c(=O)c1C(=O)Nc1ccc(Oc2ccc(O)c(-c3ccnc(N)n3)c2)c(F)c1 [Example 39, N-(4-(3-(2-aminopyrimidin-4-yl)-4-hydroxyphenoxy)-3-fluorophenyl)-4-ethoxy-1-(4-fluorophenyl)-2-oxo-1,2-dihydropyridin-3-carboxamide]
- IC50 [1]: 86 nM
- IC50 [2]: 27 nM

SMILES: Cc1ccc(C(=O)Nc2ccc(Nc3ccc(O)c(-c4ccnc(N)n4)c3)c(F)c2)c(=O)n1-c1ccc(F)cc1 [Example 30, N-(4-((3-(2-aminopyrimidin-4-yl)-4-hydroxyphenyl)amino)-3-fluorophenyl)-1-(4-fluorophenyl)-6-methyl-2-oxo-1,2-dihydropyridin-3-carboxamide]
- IC50 [1]: 248 nM
- IC50 [2]: 49 nM

SMILES: Nc1nccc(-c2cc(-c3ccc(NC(=O)c4ccc(CO)n(-c5ccc(F)cc5)c4=O)cc3F)ccc2O)n1 [Example 10, N-(3′-(2-aminopyrimidin-4-yl)-2-fluoro-4′-hydroxy-[1,1′-biphenyl]-4-yl)-1-(4-fluorophenyl)-6-(hydroxymethyl)-2-oxo-1,2-dihydropyridin-3-carboxamide]
- IC50 [1]: 855 nM
- IC50 [2]: 1710 nM

SMILES: Cn1cc(-c2cc(C(=O)Nc3ccc(Oc4ccc(O)c(-c5ccnc(N)n5)c4)c(F)c3)c(=O)n(-c3ccc(F)cc3)c2)cn1 [Example 47, N-(4-(3-(2-aminopyrimidin-4-yl)-4-hydroxyphenoxy)-3-fluorophenyl)-1-(4-fluorophenyl)-5-(1-methyl-1H-pyrazol-4-yl)-2-oxo-1,2-dihydropyridin-3-carboxamide]
- IC50 [1]: 882 nM
- IC50 [2]: 179 nM

SMILES: Cc1c(C(=O)Nc2ccc(Oc3ccc(O)c(-c4ccnc(N)n4)c3)c(F)c2)c(=O)n(-c2ccccc2)n1C [Example 43, N-(4-(3-(2-aminopyrimidin-4-yl)-4-hydroxyphenoxy)-3-fluorophenyl)-1,5-dimethyl-3-oxo-2-phenyl-2,3-dihydro-1H-pyrazol-4-carboxamide]
- IC50 [1]: 279 nM
- IC50 [2]: 48 nM

SMILES: CCOc1ccn(-c2ccc(F)cc2)c(=O)c1C(=O)Nc1ccc(Oc2ccc(O)c(-c3cc[nH]n3)c2)c(F)c1 [Example 57, 4-Ethoxy-N-(3-fluoro-4-(4-hydroxy-3-(1H-pyrazol-3-yl)phenoxy)phenyl)-1-(4-fluorophenyl)-2-oxo-1,2-dihydropyridin-3-carboxamide]
- IC50 [1]: 4480 nM
- IC50 [2]: 160 nM

SMILES: Cn1cc(-c2cc(C(=O)Nc3ccc(-c4ccc(O)c(-c5ccnc(N)n5)c4)c(F)c3)c(=O)n(-c3ccc(F)cc3)c2)cn1 [Example 7, N-(3′-(2-aminopyrimidin-4-yl)-2-fluoro-4′-hydroxy-[1,1′-biphenyl]-4-yl)-1-(4-fluorophenyl)-5-(1-methyl-1H-pyrazol-4-yl)-2-oxo-1,2-dihydropyridin-3-carboxamide]
- IC50 [1]: 942 nM
- IC50 [2]: 2230 nM

SMILES: CCOc1ccn(-c2ccc(F)cc2)c(=O)c1C(=O)Nc1ccc(Nc2ccc(O)c(-c3ccnc(N)n3)c2)cc1F [Example 34, N-(4-((3-(2-aminopyrimidin-4-yl)-4-hydroxyphenyl)amino)-2-fluorophenyl)-4-ethoxy-1-(4-fluorophenyl)-2-oxo-1,2-dihydropyridin-3-carboxamide]
- IC50 [1]: 2280 nM
- IC50 [2]: 552 nM

SMILES: CCOc1ccn(-c2ccc(F)cc2)c(=O)c1C(=O)Nc1ccc(Oc2ccc(O)c(-c3ccncn3)c2)c(F)c1 [Example 54, 4-Ethoxy-N-(3-fluoro-4-(4-hydroxy-3-(pyrimidin-4-yl)phenoxy)phenyl)-1-(4-fluorophenyl)-2-oxo-1,2-dihydropyridin-3-carboxamide]
- IC50 [1]: 351 nM
- IC50 [2]: 67 nM

SMILES: COc1ccn(-c2ccc(F)cc2)c(=O)c1C(=O)Nc1ccc(-c2ccc(O)c(-c3ccnc(N)n3)c2)c(F)c1 [Example 2, N-(3′-(2-aminopyrimidin-4-yl)-2-fluoro-4′-hydroxy-[1,1′-biphenyl]-4-yl)-1-(4-fluorophenyl)-4-methoxy-2-oxo-1,2-dihydropyridin-3-carboxamide]
- IC50 [1]: 131 nM
- IC50 [2]: 583 nM

SMILES: Nc1nccc(-c2cc(Oc3ccc(NC(=O)c4cc(C5CC5)cn(-c5ccc(F)cc5)c4=O)cc3F)ccc2O)n1 [Example 48, N-(4-(3-(2-aminopyrimidin-4-yl)-4-hydroxyphenoxy)-3-fluorophenyl)-5-cyclopropyl-1-(4-fluorophenyl)-2-oxo-1,2-dihydropyridin-3-carboxamide]
- IC50 [1]: 23 nM
- IC50 [2]: 64 nM

SMILES: Nc1nccc(-c2cc(Oc3ccc(NC(=O)c4ccc(C(F)(F)F)n(-c5ccc(F)cc5)c4=O)cc3F)ccc2O)n1 [Example 49, N-(4-(3-(2-aminopyrimidin-4-yl)-4-hydroxyphenoxy)-3-fluorophenyl)-1-(4-fluorophenyl)-2-oxo-6-(trifluoromethyl)-1,2-dihydropyridin-3-carboxamide]
- IC50 [1]: 163 nM
- IC50 [2]: 67 nM

SMILES: CCOc1ccn(-c2ccc(F)cc2)c(=O)c1C(=O)Nc1ccc(-c2ccc(O)c(-c3ccnc(N)n3)c2)c(C)c1 [Example 13, N-(3′-(2-aminopyrimidin-4-yl)-4′-hydroxy-2-methyl-[1,1′-biphenyl]-4-yl)-4-ethoxy-1-(4-fluorophenyl)-2-oxo-1,2-dihydropyridin-3-carboxamide]
- IC50 [1]: 1330 nM
- IC50 [2]: 2940 nM

SMILES: Cc1ccc(C(=O)Nc2ccc(Oc3ccc(O)c(-c4cc[nH]n4)c3)c(F)c2)c(=O)n1-c1ccc(F)cc1 [Example 58, N-(3-Fluoro-4-(4-hydroxy-3-(1H-pyrazol-3-yl)phenoxy)phenyl)-1-(4-fluorophenyl)-6-methyl-2-oxo-1,2-dihydropyridin-3-carboxamide]
- IC50 [1]: 1450 nM
- IC50 [2]: 99 nM

SMILES: Nc1nccc(-c2cc(Oc3ccc(NC(=O)c4ccc(CO)n(-c5ccc(F)cc5)c4=O)cc3F)ccc2O)n1 [Example 50, N-(4-(3-(2-aminopyrimidin-4-yl)-4-hydroxyphenoxy)-3-fluorophenyl)-1-(4-fluorophenyl)-6-(hydroxymethyl)-2-oxo-1,2-dihydropyridin-3-carboxamide]
- IC50 [1]: 133 nM
- IC50 [2]: 12 nM

SMILES: Cc1c(C(=O)Nc2ccc(Oc3ccc(O)c(-c4ccnc(N)n4)c3)c(F)c2)c(=O)n(-c2ccccc2)n1CC(C)(C)O [Example 52, N-(4-(3-(2-aminopyrimidin-4-yl)-4-hydroxyphenoxy)-3-fluorophenyl)-1-(2-hydroxy-2-methylpropyl)-5-methyl-3-oxo-2-phenyl-2,3-dihydro-1H-pyrazol-4-carboxamide]
- IC50 [1]: 876 nM
- IC50 [2]: 115 nM

SMILES: Nc1nccc(-c2cc(Oc3ccc(NC(=O)c4cc(Br)cn(-c5ccc(F)cc5)c4=O)cc3F)ccc2O)n1 [Example 44, N-(4-(3-(2-aminopyrimidin-4-yl)-4-hydroxyphenoxy)-3-fluorophenyl)-5-bromo-1-(4-fluorophenyl)-2-oxo-1,2-dihydropyridin-3-carboxamide]
- IC50 [1]: 137 nM
- IC50 [2]: 46 nM

SMILES: Cc1ccc(C(=O)Nc2ccc(Oc3ccc(O)c(-c4ccnc(N)n4)c3)c(F)c2)c(=O)n1-c1ccc(F)cc1 [Example 40, N-(4-(3-(2-aminopyrimidin-4-yl)-4-hydroxyphenoxy)-3-fluorophenyl)-1-(4-fluorophenyl)-6-methyl-2-oxo-1,2-dihydropyridin-3-carboxamide]
- IC50 [2]: 4 nM

SMILES: CCOc1ccn(-c2ccc(F)cc2)c(=O)c1C(=O)Nc1ccc(-c2ccc(OC)c(-c3cnc(N)nc3)c2)c(F)c1 [Example 17, N-(3′-(2-aminopyrimidin-5-yl)-2-fluoro-4′-methoxy-[1,1′-biphenyl]-4-yl)-4-ethoxy-1-(4-fluorophenyl)-2-oxo-1,2-dihydropyridin-3-carboxamide]
- IC50 [1]: 2300 nM
- IC50 [2]: > 10000 nM

SMILES: CCOc1ccn(-c2ccc(F)cc2)c(=O)c1C(=O)Nc1ccc(-c2ccc(O)c(-c3ccnc(N)n3)c2)c(F)c1 [Example 1, N-(3′-(2-aminopyrimidin-4-yl)-2-fluoro-4′-hydroxy-[1,1′-biphenyl]-4-yl)-4-ethoxy-1-(4-fluorophenyl)-2-oxo-1,2-dihydropyridin-3-carboxamide]
- IC50 [1]: 144 nM
- IC50 [2]: 612 nM

SMILES: CCOc1ccn(-c2ccc(F)cc2)c(=O)c1C(=O)Nc1ccc(Nc2ccc(O)c(-c3ccnc(N)n3)c2)c(F)c1 [Example 28, N-(4-((3-(2-aminopyrimidin-4-yl)-4-hydroxyphenyl)amino)-3-fluorophenyl)-4-ethoxy-1-(4-fluorophenyl)-2-oxo-1,2-dihydropyridin-3-carboxamide]
- IC50 [1]: 1170 nM
- IC50 [2]: 180 nM

SMILES: Nc1nccc(-c2cc(Oc3ccc(NC(=O)C4(C(=O)Nc5ccc(F)cc5)CC4)cc3F)ccc2O)n1 [Example 41, N-(4-(3-(2-aminopyrimidin-4-yl)-4-hydroxyphenoxy)-3-fluorophenyl)-N-(4-fluorophenyl)cyclopropan-1,1-dicarboxamide]
- IC50 [1]: 362 nM
- IC50 [2]: 71 nM

SMILES: CC(=O)c1cc(Oc2ccc(NC(=O)c3ccc(C)n(-c4ccc(F)cc4)c3=O)cc2F)ccc1O [Example 37, N-(4-(3-acetyl-4-hydroxyphenoxy)-3-fluorophenyl)-1-(4-fluorophenyl)-6-methyl-2-oxo-1,2-dihydropyridin-3-carboxamide]
- IC50 [2]: 954 nM

SMILES: Nc1nccc(-c2cc(Oc3ccc(NC(=O)c4cccn(-c5ccc(F)cc5)c4=O)cc3F)ccc2O)n1 [Example 46, N-(4-(3-(2-aminopyrimidin-4-yl)-4-hydroxyphenoxy)-3-fluorophenyl)-1-(4-fluorophenyl)-2-oxo-1,2-dihydropyridin-3-carboxamide]
- IC50 [1]: 241 nM
- IC50 [2]: 54 nM

SMILES: C/C(=N\O)c1cc(Oc2ccc(NC(=O)c3ccc(C)n(-c4ccc(F)cc4)c3=O)cc2F)ccc1O [Example 38, (E)-N-(3-fluoro-4-(4-hydroxy-3-(1-(hydroxyimino)ethyl)phenoxy)phenyl)-1-(4-fluorophenyl)-6-methyl-2-oxo-1,2-dihydropyridin-3-carboxamide]
- IC50 [2]: 354 nM
